How the values were obtained:
[1] = test system: KRas-mediated phosphorylation of ERK in AsPC-1 cells; assay: Inhibition of KRas-mediated phosphorylation of ERK (Cisbio HTRF pERK), AsPC-1 cells; format: cell-based; details: Homo sapiens, ASPC1, AsPC-1 cells; HTRF pERK
How it was run: (§1)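 Cells were seeded at 6,000 per well and treated for 3 hrs with compound in a 10-dose, 3-fold series from 10 uM (0.8% final DMSO), with 0.2 uM Trametinib as Min control. Lysates made at 4° C over 40 mins were incubated 2 hrs at room temperature with d2- and Cryptate-labelled antibodies, then read by HTRF.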

[2] = test system: KRas-mediated phosphorylation of ERK in PSN1 cells; assay: Inhibition of KRas-mediated phosphorylation of ERK (Cisbio HTRF pERK), PSN1 cells; format: cell-based; details: Homo sapiens
How it was run: (§2)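 Day 1 seeding: 6,000 cells per well, RPMI/10% FBS, left overnight at 37° C. with 5% CO2. Plates then stood covered for 4 h at room temperature prior to HTRF detection of pERK.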

[3] = test system: KRas-mediated phosphorylation of ERK in A549 cells; assay: Inhibition of KRas-mediated phosphorylation of ERK (Cisbio HTRF pERK), A549 cells; format: cell-based; details: Homo sapiens; for inhibition at 0.1 µM: A549, 3 h, single point, 100 nM compound, 3 hrs; for IC50: HTRF pERK
How it was run: (§3)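 A cell-based HTRF pERK assay: ten-point, threefold titrations beginning at 10 uM were applied for 3 hrs, with 0.2 uM Trametinib wells as the minimum control. Cells were lysed cold, and lysate was incubated with the antibody pair for 2 hrs before reading.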

[4] = test system: KRas-mediated phosphorylation of ERK in H460 cells; assay: Inhibition of KRas-mediated phosphorylation of ERK (Cisbio HTRF pERK), H460 cells; format: cell-based; details: Homo sapiens; for inhibition at 0.1 µM: NCI-H460, 3 h, single point, 100 nM compound, 3 hrs; for IC50: NCI-H460, HTRF pERK
How it was run: as §1

KRas^G12S = target: T1, KRas^G12S (Homo sapiens, UniProt P01116, G12S); assay: KRas binding assay (TR-FRET tracer displacement), KRas G12S; details: for inhibition at 0.01 µM: single point, 10 nM compound, TR-FRET; for IC50: TR-FRET tracer displacement, KRas G12S
T1 construct: Biotinylated KRas (corresponding to amino acids 1-169, produced at Accelegan Inc.); biotin (biotinylated); purchased Accelegan Inc
T1 sequence (P01116 1-169 isoform P01116-2 G12S): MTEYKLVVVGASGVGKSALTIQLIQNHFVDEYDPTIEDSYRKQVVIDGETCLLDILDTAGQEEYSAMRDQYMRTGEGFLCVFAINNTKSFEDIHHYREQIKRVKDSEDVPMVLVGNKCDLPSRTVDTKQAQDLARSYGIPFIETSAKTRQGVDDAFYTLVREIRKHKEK

KRas^G12V = target: T2, KRas^G12V (Homo sapiens, UniProt P01116, G12V); assay: KRas binding assay (TR-FRET tracer displacement), KRas G12V
T2 construct: Biotinylated KRas (corresponding to amino acids 1-169, produced at Accelegan Inc.); biotin (biotinylated); purchased Accelegan Inc
T2 sequence (P01116 1-169 isoform P01116-2 G12V): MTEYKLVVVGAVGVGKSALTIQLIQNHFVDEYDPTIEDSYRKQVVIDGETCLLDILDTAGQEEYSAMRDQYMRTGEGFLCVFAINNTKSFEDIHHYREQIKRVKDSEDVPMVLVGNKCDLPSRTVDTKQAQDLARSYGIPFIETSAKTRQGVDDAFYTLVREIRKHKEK

[5] = test system: KRas-mediated phosphorylation of ERK in HCT116 cells; assay: Inhibition of KRas-mediated phosphorylation of ERK (Cisbio HTRF pERK), HCT116 cells; format: cell-based; details: Homo sapiens; for inhibition at 0.1 µM: HCT-116, 3 h, single point, 100 nM compound, 3 hrs; for IC50: HCT-116, HTRF pERK
How it was run: as §3

[6] = test system: KRas-mediated phosphorylation of ERK in MKN1 cells; assay: Inhibition of KRas-mediated phosphorylation of ERK (Cisbio HTRF pERK), MKN1 cells; format: cell-based; details: Homo sapiens, MKN-1
How it was run: as §2

KRas^G12R = target: T3, KRas^G12R (Homo sapiens, UniProt P01116, G12R); assay: KRas binding assay (TR-FRET tracer displacement), KRas G12R
T3 construct: Biotinylated KRas (corresponding to amino acids 1-169, produced at Accelegan Inc.); biotin (biotinylated); purchased Accelegan Inc
T3 sequence (P01116 1-169 isoform P01116-2 G12R): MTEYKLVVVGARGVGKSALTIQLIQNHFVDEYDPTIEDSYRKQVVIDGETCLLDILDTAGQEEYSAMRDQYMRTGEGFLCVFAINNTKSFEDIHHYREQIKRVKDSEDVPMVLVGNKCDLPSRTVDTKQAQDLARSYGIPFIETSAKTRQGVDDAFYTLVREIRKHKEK

[7] = test system: KRas-mediated phosphorylation of ERK in H358 cells; assay: Inhibition of KRas-mediated phosphorylation of ERK (Cisbio HTRF pERK), H358 cells; format: cell-based; details: Homo sapiens; for inhibition at 0.1 µM: NCI-H358, 3 h, single point, 100 nM compound, 3 hrs; for IC50: NCI-H358, HTRF pERK
How it was run: as §1

KRas^Q61H = target: T4, KRas^Q61H (Homo sapiens, UniProt P01116, Q61H); assay: KRas binding assay (TR-FRET tracer displacement), KRas Q61H; details: for inhibition at 0.01 µM: single point, 10 nM compound, TR-FRET; for IC50: TR-FRET tracer displacement, KRas Q61H
T4 construct: Biotinylated KRas (corresponding to amino acids 1-169, produced at Accelegan Inc.); biotin (biotinylated); purchased Accelegan Inc
T4 sequence (P01116 1-169 isoform P01116-2 Q61H): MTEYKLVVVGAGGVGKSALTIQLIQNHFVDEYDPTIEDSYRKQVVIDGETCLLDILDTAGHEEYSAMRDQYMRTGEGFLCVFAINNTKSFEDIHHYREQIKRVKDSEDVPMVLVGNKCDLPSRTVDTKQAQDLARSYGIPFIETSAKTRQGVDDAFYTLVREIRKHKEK

[8] = test system: KRas-mediated phosphorylation of ERK in H727 cells; assay: Inhibition of KRas-mediated phosphorylation of ERK (Cisbio HTRF pERK), H727 cells; format: cell-based; details: Homo sapiens, NCI-H727, H727 cells; HTRF pERK
How it was run: as §1

KRas^G12C = target: T5, KRas^G12C (Homo sapiens, UniProt P01116, G12C); assay: KRas binding assay (TR-FRET tracer displacement), KRas G12C; details: for inhibition at 0.01 µM: single point, 10 nM compound, TR-FRET; for IC50: TR-FRET tracer displacement, KRas G12C
T5 construct: Biotinylated KRas (corresponding to amino acids 1-169, produced at Accelegan Inc.); biotin (biotinylated); purchased Accelegan Inc
T5 sequence (P01116 1-169 isoform P01116-2 G12C): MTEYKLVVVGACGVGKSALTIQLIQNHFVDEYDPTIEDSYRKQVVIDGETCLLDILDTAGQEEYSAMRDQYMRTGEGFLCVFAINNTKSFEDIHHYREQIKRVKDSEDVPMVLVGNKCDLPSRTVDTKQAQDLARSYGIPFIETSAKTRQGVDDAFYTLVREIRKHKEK

KRas^G12A = target: T6, KRas^G12A (Homo sapiens, UniProt P01116, G12A); assay: KRas binding assay (TR-FRET tracer displacement), KRas G12A; details: for inhibition at 0.01 µM: single point, 10 nM compound, TR-FRET; for IC50: TR-FRET tracer displacement, KRas G12A
T6 construct: Biotinylated KRas (corresponding to amino acids 1-169, produced at Accelegan Inc.); biotin (biotinylated); purchased Accelegan Inc
T6 sequence (P01116 1-169 isoform P01116-2 G12A): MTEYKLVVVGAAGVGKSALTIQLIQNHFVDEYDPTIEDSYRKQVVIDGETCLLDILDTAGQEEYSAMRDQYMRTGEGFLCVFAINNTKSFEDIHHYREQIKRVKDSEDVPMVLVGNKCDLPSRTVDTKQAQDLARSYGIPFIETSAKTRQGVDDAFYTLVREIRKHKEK

KRas^G13D = target: T7, KRas^G13D (Homo sapiens, UniProt P01116, G13D); assay: KRas binding assay (TR-FRET tracer displacement), KRas G13D; details: for inhibition at 0.01 µM: single point, 10 nM compound, TR-FRET; for IC50: TR-FRET tracer displacement, KRas G13D
T7 construct: Biotinylated KRas (corresponding to amino acids 1-169, produced at Accelegan Inc.); biotin (biotinylated); purchased Accelegan Inc
T7 sequence (P01116 1-169 isoform P01116-2 G13D): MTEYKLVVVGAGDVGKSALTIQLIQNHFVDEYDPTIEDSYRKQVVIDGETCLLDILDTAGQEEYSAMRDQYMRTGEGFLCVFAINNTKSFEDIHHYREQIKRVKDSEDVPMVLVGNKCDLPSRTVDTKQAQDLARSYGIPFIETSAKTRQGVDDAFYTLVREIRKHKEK

KRas^G12D = target: T8, KRas^G12D (Homo sapiens, UniProt P01116, G12D); assay: KRas binding assay (TR-FRET tracer displacement), KRas G12D
T8 construct: Biotinylated KRas (corresponding to amino acids 1-169, produced at Accelegan Inc.); biotin (biotinylated); purchased Accelegan Inc
T8 sequence (P01116 1-169 isoform P01116-2 G12D): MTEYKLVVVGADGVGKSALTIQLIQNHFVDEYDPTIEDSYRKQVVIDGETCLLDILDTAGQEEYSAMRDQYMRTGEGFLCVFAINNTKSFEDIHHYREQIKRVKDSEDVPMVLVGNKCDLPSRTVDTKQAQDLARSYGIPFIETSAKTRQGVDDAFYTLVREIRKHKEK

KRas^WT = target: T9, KRas^WT (Homo sapiens, UniProt P01116); assay: KRas binding assay (TR-FRET tracer displacement), KRas WT; details: for inhibition at 0.01 µM: single point, 10 nM compound, TR-FRET; for IC50: TR-FRET tracer displacement, KRas WT
T9 construct: Biotinylated KRas (corresponding to amino acids 1-169, produced at Accelegan Inc.); biotin (biotinylated); purchased Accelegan Inc
T9 sequence (P01116 1-169 isoform P01116-2): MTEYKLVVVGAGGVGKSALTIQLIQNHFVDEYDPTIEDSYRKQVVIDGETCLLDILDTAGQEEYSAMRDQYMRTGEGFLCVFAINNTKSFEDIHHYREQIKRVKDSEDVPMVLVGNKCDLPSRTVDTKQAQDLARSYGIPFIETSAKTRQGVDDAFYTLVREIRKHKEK

Compound | IC50 [1] [nM] | IC50 [2] [nM] | inhibition at 0.1 µM [3] [%] | inhibition at 0.1 µM [4] [%] | inhibition at 0.01 µM (KRas^G12S) [%] | IC50 (KRas^G12V) [nM] | inhibition at 0.1 µM [5] [%] | IC50 [6] [nM] | IC50 (KRas^G12R) [nM] | inhibition at 0.1 µM [7] [%] | inhibition at 0.01 µM (KRas^Q61H) [%] | IC50 [8] [nM] | inhibition at 0.01 µM (KRas^G12C) [%] | inhibition at 0.01 µM (KRas^G12A) [%] | inhibition at 0.01 µM (KRas^G13D) [%] | IC50 (KRas^G12D) [nM] | inhibition at 0.01 µM (KRas^WT) [%] | IC50 [3] [nM] | IC50 [4] [nM] | IC50 [5] [nM] | also measured
CCc1c(F)ccc2cc(O)cc(-c3ncc4c(N5CCCCn6nc(C(=O)N(C)C)cc6C5)nc(OC[C@@]56CCCN5C[C@H](F)C6)nc4c3F)c12 [Example 671, 5-(7-(8-ethyl-7-fluoro-3-hydroxynaphthalen-1-yl)-8-fluoro-2-(((2R,7aS)-2-fluorotetrahydro-1H-pyrrolizin-7a(5H)-yl)methoxy)pyrido[4,3-d]pyrimidin-4-yl)-N,N-dimethyl-4,5,6,7,8,9-hexahydropyrazolo[1,5-a][1,4]diazocine-2-carboxamide] | 28 | 4110 | 60 | 60 | 98 | < 2 | 35 | 7 | < 2 | 98 | 94 | 6 | 98 | 97 | 93 | < 2 | 93 | – | – | – | –
C#Cc1c(F)ccc2cc(O)cc(-c3ncc4c(N5CCC[C@@](C)(O)C5)nc(OC[C@@]56CCCN5[C@@H](CO)CC6)nc4c3F)c12 [Example 809, (R)-1-(7-(8-ethynyl-7-fluoro-3-hydroxynaphthalen-1-yl)-8-fluoro-2-(((3R,7aS)-3-(hydroxymethyl)tetrahydro-1H-pyrrolizin-7a(5H)-yl)methoxy)pyrido[4,3-d]pyrimidin-4-yl)-3-methylpiperidin-3-ol] | 871 | > 10000 | – | – | – | 4 | – | 57 | 5 | – | – | 809 | – | – | – | 3 | – | 2560 | 918 | 1510 | IC50 (KRas^G12S): 4 nM; IC50 [7]: 228 nM; IC50 (KRas^Q61H): 5 nM; IC50 (KRas^G12C): 3 nM; IC50 (KRas^G12A): 5 nM; IC50 (KRas^G13D): 3 nM; IC50 (KRas^WT): 5 nM
CCc1c(F)ccc2cc(O)cc(-c3ncc4c(N5CC6CCC(C5)C6C#N)nc(OC[C@@]56CCCN5C[C@H](F)C6)nc4c3F)c12 (stereo partly drawn) [Example 559, 3-(7-(8-ethyl-7-fluoro-3-hydroxynaphthalen-1-yl)-8-fluoro-2-(((2R,7aS)-2-fluorohexahydro-1H-pyrrolizin-7a-yl)methoxy)pyrido[4,3-d]pyrimidin-4-yl)-3-azabicyclo[3.2.1]octane-8-carbonitrile] | 105 | 9490 | 75 | 89 | 82 | < 2 | 55 | 5 | < 2 | 98 | 82 | 20 | 89 | 70 | 82 | 15 | 73 | – | – | – | –
CCc1cccc2cc3[nH]ncc3c(-c3ncc4c(N5CCCn6nc(C(=O)N(C)C)cc6C5)nc(OC[C@@]56CCCN5C[C@H](F)C6)nc4c3F)c12 [Example 770, 5-(7-(5-ethyl-1H-benzo[f]indazol-4-yl)-8-fluoro-2-(((2R,7aS)-2-fluorohexahydro-1H-pyrrolizin-7a-yl)methoxy)pyrido[4,3-d]pyrimidin-4-yl)-N,N-dimethyl-5,6,7,8-tetrahydro-4H-pyrazolo[1,5-a][1,4]diazepine-2-carboxamide] | 444 | > 10000 | -1 | -1 | – | 3 | 10 | 5 | 7 | 12 | – | 654 | – | – | – | < 2 | – | 3330 | 1720 | 3440 | IC50 (KRas^G12S): 6 nM; IC50 [7]: 258 nM; IC50 (KRas^Q61H): 21 nM; IC50 (KRas^G12C): 6 nM; IC50 (KRas^G12A): 12 nM; IC50 (KRas^G13D): 25 nM; IC50 (KRas^WT): 15 nM
Oc1cc(-c2ncc3c(N4CCCC5(CCO5)C4)nc(OC[C@@]45CCCN4C[C@H](F)C5)nc3c2F)c2c(Cl)c(F)ccc2c1 (stereo partly drawn) [Example 773, 5-chloro-6-fluoro-4-(8-fluoro-2-(((2R,7aS)-2-fluorotetrahydro-1H-pyrrolizin-7a(5H)-yl)methoxy)-4-(1-oxa-6-azaspiro[3.5]nonan-6-yl)pyrido[4,3-d]pyrimidin-7-yl)naphthalen-2-ol] | 7 | 2680 | 97 | 96 | 92 | < 2 | 90 | 4 | 2 | 99 | 95 | 8 | 95 | 86 | 94 | 3 | 90 | 8 | 10 | 18 | IC50 [7]: 3 nM
CCc1c(F)ccc2cc(O)cc(-c3ncc4c(N5CCCC6(CNS(=O)(=O)N6)C5)nc(OC[C@]56CCCN5[C@H](COC(=O)N(C)C)CC6)nc4c3F)c12 (stereo partly drawn) [Example 716, ((3S,7aR)-7a-(((4-(2,2-dioxido-2-thia-1,3,7-triazaspiro[4.5]decan-7-yl)-7-(8-ethyl-7-fluoro-3-hydroxynaphthalen-1-yl)-8-fluoropyrido[4,3-d]pyrimidin-2-yl)oxy)methyl)hexahydro-1H-pyrrolizin-3-yl)methyl dimethylcarbamate] | 39 | 1020 | 37 | 56 | 95 | < 2 | 34 | 9 | < 2 | 71 | 98 | 273 | 97 | 83 | 98 | < 2 | 93 | – | – | – | –
CCc1c(F)ccc2cc(O)cc(-c3ncc4c(N5CCCCn6nc(C(=O)N7CCOCC7)cc6C5)nc(OC[C@@]56CCCN5C[C@H](F)C6)nc4c3F)c12 [Example 690, (5-(7-(8-ethyl-7-fluoro-3-hydroxynaphthalen-1-yl)-8-fluoro-2-(((2R,7aS)-2-fluorotetrahydro-1H-pyrrolizin-7a(5H)-yl)methoxy)pyrido[4,3-d]pyrimidin-4-yl)-4,5,6,7,8,9-hexahydropyrazolo[1,5-a][1,4]diazocin-2-yl)(morpholino)methanone] | 81 | 7620 | 4 | 37 | 96 | < 2 | 20 | 16 | < 2 | 79 | 92 | 37 | 97 | 93 | 90 | < 2 | 91 | – | – | – | –
